Results taken from patent US7153844B2, “Estrogen-linked platinum (II) complexes as anticancer agents” (priority 2002, dated 2006).

What was measured:
Type in all cases: cell-based, human
KLE = assay: Cell proliferation with the MTT assay; conditions: read-out: IC50 (Inhibitory concentration 50%), uterus, ER−, NR = IC50 not reach at the concentrations tested
Description: (§1) Cell Proliferation with the MTT Assay (Uterine, Ovarian and Breast Cancer Cell Lines)
(§2) Several human uterine, ovarian and breast cancer cell lines were used to evaluate the antitumor activities of the new estrogen-linked platinum (II) complexes. The cytotoxicity of the platinum (II) complexes was done along with cisplatin as the control on both ER+ and ER— human uterine, ovarian and breast carcinomas. Cell proliferation was done with the MTT assay as described by J. Carmichael et al. (Cancer Res. 47, 943–946 (1987) see also C. H. J. Ford et al., Cancer Chemother. Pharmacol. 24, 295–301 (1986)). The MTT assay is based on the ability of viable cells to reduce a soluble colorless tetrazolium salt, 3-(4,5-dimethylthiazol-2-yl)-2,5-diphenyltetrazolium bromide (MTT), into an insoluble blue formazan derivative.

Ishikawa = assay: Cell proliferation with the MTT assay; conditions: read-out: IC50 (Inhibitory concentration 50%), uterus, ER+, NR = IC50 not reach at the concentrations tested
Description: as §1, §2

RL-95-2 = assay: Cell proliferation with the MTT assay; conditions: read-out: IC50 (Inhibitory concentration 50%), RL-95-2, uterus, ER+, NR = IC50 not reach at the concentrations tested
Description: as §1, §2

HEC-1A = assay: Cell proliferation with the MTT assay; conditions: read-out: IC50 (Inhibitory concentration 50%), uterus, ER−, NR = IC50 not reach at the concentrations tested
Description: as §1, §2

MDA-MB-231 [1] = assay: Cell proliferation with the SRB assay; conditions: read-out: IC50 (Inhibitory concentration 50%), MDA-MB-231 (ER−) breast carcinoma
Description: (§3) Cell Proliferation with the SRB Assay (Breast Cancer Cell Lines)
(§4) Two human breast tumor cell lines were used to evaluate the antitumor activities of the new estrogen-linked platinum (II) complexes. […] Cell proliferation was done with the sulforhodamine B (SRB) assay as described by Alley, M. C. et al. (Cancer Research. no 48, 589–601 (1988)) and Boyd, M. R. & Paull, K. D. (Drug Development Research. 34, 91–109, (1995)).

MCF-7 [2] = assay: Cell proliferation with the SRB assay; conditions: read-out: IC50 (Inhibitory concentration 50%), MCF-7 (ER+) breast carcinoma
Description: as §3, §4

SKOV-3 = assay: Cell proliferation with the MTT assay; conditions: read-out: IC50 (Inhibitory concentration 50%), SKOV-3, ovary, ER+, NR = IC50 not reach at the concentrations tested
Description: as §1, §2

A2780cp = assay: Cell proliferation with the MTT assay; conditions: read-out: IC50 (Inhibitory concentration 50%), ovary, ER−, NR = IC50 not reach at the concentrations tested
Description: as §1, §2

MDA-MB-231 [3] = assay: Cell proliferation with the MTT assay; conditions: read-out: IC50 (Inhibitory concentration 50%), MDA-MB-231, breast, ER−, NR = IC50 not reach at the concentrations tested
Description: as §1, §2

HeLa = assay: Cell proliferation with the MTT assay; conditions: read-out: IC50 (Inhibitory concentration 50%), uterus, ER−, NR = IC50 not reach at the concentrations tested
Description: as §1, §2

ZR-75-1 = assay: Cell proliferation with the MTT assay; conditions: read-out: IC50 (Inhibitory concentration 50%), ZR-75-1, breast, ER+, NR = IC50 not reach at the concentrations tested
Description: as §1, §2

A2780wt = assay: Cell proliferation with the MTT assay; conditions: read-out: IC50 (Inhibitory concentration 50%), ovary, ER−, NR = IC50 not reach at the concentrations tested
Description: as §1, §2

MCF-7 [4] = assay: Cell proliferation with the MTT assay; conditions: read-out: IC50 (Inhibitory concentration 50%), MCF-7, breast, ER+, NR = IC50 not reach at the concentrations tested
Description: as §1, §2

HS578T = assay: Cell proliferation with the MTT assay; conditions: read-out: IC50 (Inhibitory concentration 50%), breast, ER−, NR = IC50 not reach at the concentrations tested
Description: as §1, §2

OVCAR-3 = assay: Cell proliferation with the MTT assay; conditions: read-out: IC50 (Inhibitory concentration 50%), OVCAR-3, ovary, ER+, NR = IC50 not reach at the concentrations tested
Description: as §1, §2

C[C@]12CC[C@@H]3c4ccc(O)cc4CC[C@H]3[C@@H]1C[C@H](CCCCCCCCCCCNCc1ccccn1)[C@@H]2O.[Cl][Pt][Cl] [derivative 12 (∘ = 1), 16β-[11′-(2″-picolylamino)undecanyl]-1,3,5(10)-estratrien-3,17β-diol dichloroplatinate (II)]
IC50 (KLE): 6 µM
IC50 (Ishikawa): 28 µM
IC50 (RL-95-2): 7 µM
IC50 (HEC-1A): 13 µM
IC50 (MDA-MB-231 [1]): 4.1 µM
IC50 (MCF-7 [2]): 5.9 µM

C[C@]12CCC3c4ccc(O)cc4CCC3C1C[C@@](CO)(CCCCCCCCCCNCc1ccccn1)[C@@H]2O.[Cl][Pt][Cl] (stereo partly drawn) [derivative 14 (∘ = 1, p = 8), 16β-hydroxymethyl-16α-[10-(1-pyridin-2-yl-methylamino)-decyl]-1,3,5(10)-estratrien-3,17β-diol dichloroplatinum (II)]
IC50 (KLE): 9.5 µM
IC50 (SKOV-3): > 40 µM
IC50 (A2780cp): 16.6 µM
IC50 (MDA-MB-231 [3]): 15.3 µM
IC50 (HeLa): 32.2 µM
IC50 (Ishikawa): > 40 µM
IC50 (ZR-75-1): 27.6 µM
IC50 (A2780wt): 10 µM
IC50 (MCF-7 [4]): 17.7 µM
IC50 (HS578T): 34.9 µM
IC50 (RL-95-2): 9.5 µM
IC50 (HEC-1A): 15.6 µM
IC50 (OVCAR-3): 40 µM

N.N.[Cl][Pt][Cl] [Cisplatin, cis-diamminedichloroplatinum (II), reference compound]
IC50 (KLE): 24.3 ± 6.3 µM
IC50 (Ishikawa): 3.7 ± 0.9 µM
IC50 (RL-95-2): 14.1 ± 0.5 µM
IC50 (HEC-1A): 20.8 ± 4.7 µM
IC50 (MDA-MB-231 [1]): 12.8 µM
IC50 (MCF-7 [2]): 16.1 µM

C[C@]12CCC3c4ccc(O)cc4CCC3C1C[C@@](CO)(CCCCCCCCNCc1ccccn1)[C@@H]2O.[Cl][Pt][Cl] (stereo partly drawn) [derivative 14 (∘ = 1, p = 6), 16β-hydroxymethyl-16α-[8-(1-pyridin-2-yl-methylamino)-octyl]-1,3,5(10)-estratrien-3,17β-diol dichloroplatinum (II)]
IC50 (KLE): 19.5 µM
IC50 (SKOV-3): 35 µM
IC50 (A2780cp): 11 µM
IC50 (MDA-MB-231 [3]): 40 µM
IC50 (HeLa): 34.4 µM
IC50 (Ishikawa): 19.5 µM
IC50 (ZR-75-1): 11.2 µM
IC50 (A2780wt): 6.3 µM
IC50 (MCF-7 [4]): 20 µM
IC50 (HS578T): 17.5 µM
IC50 (RL-95-2): 7.8 µM
IC50 (HEC-1A): 9.2 µM
IC50 (OVCAR-3): 18.8 µM

C[C@]12CCC3c4ccc(O)cc4CCC3C1C[C@@](CO)(CCCCCCCCNCCc1ccccn1)[C@@H]2O.[Cl][Pt][Cl] (stereo partly drawn) [derivative 14 (∘ = 2, p = 6), 16β-hydroxymethyl-16α-[8′-(2-pyridin-2-yl-ethylamino)-octyl]-1,3,5(10)-estratrien-3,17β-diol dichloroplatinum (II)]
IC50 (KLE): 2.7 µM
IC50 (SKOV-3): 4.8 µM
IC50 (A2780cp): 3.6 µM
IC50 (MDA-MB-231 [3]): 10.5 µM
IC50 (HeLa): 4.6 µM
IC50 (Ishikawa): 8 µM
IC50 (ZR-75-1): 4.6 µM
IC50 (A2780wt): 3.3 µM
IC50 (MCF-7 [4]): 6.4 µM
IC50 (HS578T): 4.3 µM
IC50 (RL-95-2): 0.1 µM
IC50 (HEC-1A): 2.1 µM
IC50 (OVCAR-3): 5 µM

C[C@]12CCC3c4ccc(O)cc4CCC3C1C[C@H](CCCCCCCCCCCNCCc1ccccn1)[C@@H]2O.[Cl][Pt][Cl] (stereo partly drawn) [derivative 12 (∘ = 2), 16β-[11′-(2″-pyridylethylamino)undecanyl]-1,3,5(10)-estratrien-3,17β-diol dichloroplatinate (II)]
IC50 (KLE): 1.75 µM
IC50 (Ishikawa): 0.25 µM
IC50 (RL-95-2): 1 µM
IC50 (HEC-1A): 3.75 µM
IC50 (MDA-MB-231 [1]): < 0.78 µM
IC50 (MCF-7 [2]): < 0.78 µM
